Reference: PubChem BioAssay AID1259407 (Chemical Carcinogenesis Research Information System (CCRIS), 2018)
The source made the active and inactive calls. The rule behind the calls is not given here.

Test system: CCRIS mutagenicity, Ames/micronucleus/aberration tests
Assay: CCRIS mutagenicity studies
[1] = Test System: AMES SALMONELLA TYPHIMURIUM, Strain/Indicator: TA98, Metabolic Activation: RAT, LIVER, S-9, AROCLOR 1254, Method: STANDARD PLATE
[2] = Test System: AMES SALMONELLA TYPHIMURIUM, Strain/Indicator: TA1535, Metabolic Activation: RAT, LIVER, S-9, AROCLOR 1254, Method: STANDARD PLATE
[3] = Test System: AMES SALMONELLA TYPHIMURIUM, Strain/Indicator: TA98, Metabolic Activation: NONE, Method: STANDARD PLATE
[4] = Test System: AMES SALMONELLA TYPHIMURIUM, Strain/Indicator: TA100, Metabolic Activation: NONE, Method: STANDARD PLATE
[5] = Test System: AMES SALMONELLA TYPHIMURIUM, Strain/Indicator: TA100, Metabolic Activation: RAT, LIVER, S-9, AROCLOR 1254, Method: STANDARD PLATE
[6] = Test System: AMES SALMONELLA TYPHIMURIUM, Strain/Indicator: TA98, Metabolic Activation: NONE, Method: PREINCUBATION
[7] = Test System: AMES SALMONELLA TYPHIMURIUM, Strain/Indicator: TA100, Metabolic Activation: NONE, Method: PREINCUBATION
[8] = Test System: AMES SALMONELLA TYPHIMURIUM, Strain/Indicator: TA1537, Metabolic Activation: NONE, Method: STANDARD PLATE

For `Oc1cc2ccccc2c2ccccc12`, the mutagenic call [1] was “inactive; negative” and the mutagenic call [2] was “active; positive”.
In the case of `Cc1ccc(C)c2c1ccc1ccccc12`, the mutagenic call [3] is reported as “inactive; negative”, the mutagenic call [1] is reported as “active; positive” and the mutagenic call [4] is reported as “inactive; negative”. For the same compound, the mutagenic call [5] was “active; positive”.
For `C=Cc1ccc([N+](=O)[O-])cc1`, the mutagenic call [3] was “active; positive”, the mutagenic call [1] was “active; positive” and the mutagenic call [4] was “active; positive”. The mutagenic call [5] was “active; positive”.
With `Cc1ccc([N+](=O)[O-])cc1C` the mutagenic call [6] was “inactive; negative”, the mutagenic call (Test System: AMES SALMONELLA TYPHIMURIUM, Strain/Indicator: TA98, Metabolic Activation: RAT, LIVER, S-9, KANECHLOR 500, Method: PREINCUBATION) was “inactive; negative” and the mutagenic call [7] was “inactive; negative”.
In the case of `CC(=O)N(O)c1ccc2c(ccc3ccccc32)c1`, the mutagenic call (Test System: UDS HUMAN FIBROBLASTS, Strain/Indicator: THY INCORP (NON-S-PHASE), Metabolic Activation: NONE, Method: AUTORADIOGRAPHY) is reported as “active; positive”.
For `O=[N+]([O-])c1ccc2cc3c(cc2c1)[C@H](O)[C@@H](O)C=C3`, the mutagenic call [3] was “active; positive” and the mutagenic call [1] was “active; positive”.
In the case of `CC(O)c1ccccc1` (stereo not given), the mutagenic call (Test System: AMES SALMONELLA TYPHIMURIUM, Strain/Indicator: TA98, Metabolic Activation: HAMSTER, LIVER, S-9, AROCLOR 1254 (10%), Method: PREINCUBATION) is reported as “inactive; negative”, the mutagenic call (Test System: AMES SALMONELLA TYPHIMURIUM, Strain/Indicator: TA98, Metabolic Activation: HAMSTER, LIVER, S-9, AROCLOR 1254, Method: PREINCUBATION) is reported as “inactive; negative” and the mutagenic call [6] is reported as “inactive; negative”. The mutagenic call (Test System: AMES SALMONELLA TYPHIMURIUM, Strain/Indicator: TA98, Metabolic Activation: RAT, LIVER, S-9, AROCLOR 1254 (10%), Method: PREINCUBATION) was “inactive; negative”, the mutagenic call (Test System: AMES SALMONELLA TYPHIMURIUM, Strain/Indicator: TA98, Metabolic Activation: RAT, LIVER, S-9, AROCLOR 1254, Method: PREINCUBATION) was “inactive; negative” and the mutagenic call (Test System: AMES SALMONELLA TYPHIMURIUM, Strain/Indicator: TA100, Metabolic Activation: HAMSTER, LIVER, S-9, AROCLOR 1254 (10%), Method: PREINCUBATION) was “inactive; negative”. The mutagenic call (Test System: AMES SALMONELLA TYPHIMURIUM, Strain/Indicator: TA100, Metabolic Activation: HAMSTER, LIVER, S-9, AROCLOR 1254, Method: PREINCUBATION) was “inactive; negative”, the mutagenic call [7] was “inactive; negative” and the mutagenic call (Test System: AMES SALMONELLA TYPHIMURIUM, Strain/Indicator: TA100, Metabolic Activation: RAT, LIVER, S-9, AROCLOR 1254 (10%), Method: PREINCUBATION) was “inactive; negative”. The mutagenic call (Test System: AMES SALMONELLA TYPHIMURIUM, Strain/Indicator: TA100, Metabolic Activation: RAT, LIVER, S-9, AROCLOR 1254, Method: PREINCUBATION) was “inactive; negative”, the mutagenic call (Test System: AMES SALMONELLA TYPHIMURIUM, Strain/Indicator: TA1535, Metabolic Activation: HAMSTER, LIVER, S-9, AROCLOR 1254 (10%), Method: PREINCUBATION) was “inactive; negative” and the mutagenic call (Test System: AMES SALMONELLA TYPHIMURIUM, Strain/Indicator: TA1535, Metabolic Activation: HAMSTER, LIVER, S-9, AROCLOR 1254, Method: PREINCUBATION) was “inactive; negative”. The mutagenic call (Test System: AMES SALMONELLA TYPHIMURIUM, Strain/Indicator: TA1535, Metabolic Activation: NONE, Method: PREINCUBATION) was “inactive; negative”, the mutagenic call (Test System: AMES SALMONELLA TYPHIMURIUM, Strain/Indicator: TA1535, Metabolic Activation: RAT, LIVER, S-9, AROCLOR 1254 (10%), Method: PREINCUBATION) was “inactive; negative” and the mutagenic call (Test System: AMES SALMONELLA TYPHIMURIUM, Strain/Indicator: TA1535, Metabolic Activation: RAT, LIVER, S-9, AROCLOR 1254, Method: PREINCUBATION) was “inactive; negative”. For the same compound, the mutagenic call (Test System: AMES SALMONELLA TYPHIMURIUM, Strain/Indicator: TA1537, Metabolic Activation: HAMSTER, LIVER, S-9, AROCLOR 1254 (10%), Method: PREINCUBATION) was “inactive; negative”, the mutagenic call (Test System: AMES SALMONELLA TYPHIMURIUM, Strain/Indicator: TA1537, Metabolic Activation: HAMSTER, LIVER, S-9, AROCLOR 1254, Method: PREINCUBATION) was “inactive; negative” and the mutagenic call (Test System: AMES SALMONELLA TYPHIMURIUM, Strain/Indicator: TA1537, Metabolic Activation: NONE, Method: PREINCUBATION) was “inactive; negative”. The mutagenic call (Test System: AMES SALMONELLA TYPHIMURIUM, Strain/Indicator: TA1537, Metabolic Activation: RAT, LIVER, S-9, AROCLOR 1254 (10%), Method: PREINCUBATION) was “inactive; negative”, the mutagenic call (Test System: AMES SALMONELLA TYPHIMURIUM, Strain/Indicator: TA1537, Metabolic Activation: RAT, LIVER, S-9, AROCLOR 1254, Method: PREINCUBATION) was “inactive; negative” and the mutagenic call (Test System: MOUSE LYMPHOMA, Strain/Indicator: L5178Y (TK+/TK-), Metabolic Activation: NONE, Method: SUSPENSION/PLATE) was “active; positive”.
In the case of `Nc1nc2n[nH]nc2c(=O)[nH]1`, the mutagenic call [3] is reported as “inactive; negative”, the mutagenic call (Test System: AMES SALMONELLA TYPHIMURIUM, Strain/Indicator: TA98, Metabolic Activation: S-9, Method: STANDARD PLATE) is reported as “inactive; negative” and the mutagenic call [4] is reported as “inactive; negative”. For the same compound, the mutagenic call (Test System: AMES SALMONELLA TYPHIMURIUM, Strain/Indicator: TA100, Metabolic Activation: S-9, Method: STANDARD PLATE) was “inactive; negative”, the mutagenic call (Test System: AMES SALMONELLA TYPHIMURIUM, Strain/Indicator: TA102, Metabolic Activation: NONE, Method: STANDARD PLATE) was “inactive; negative” and the mutagenic call [8] was “inactive; negative”. The mutagenic call (Test System: AMES SALMONELLA TYPHIMURIUM, Strain/Indicator: TA1537, Metabolic Activation: S-9, Method: STANDARD PLATE) was “inactive; negative”, the mutagenic call (Test System: E. COLI, Strain/Indicator: WP2 (HCR), Metabolic Activation: NONE, Method: STANDARD PLATE) was “inactive; negative” and the mutagenic call (Test System: E. COLI, Strain/Indicator: WP2 (HCR), Metabolic Activation: S-9, Method: STANDARD PLATE) was “inactive; negative”.
In the case of `CN(C)CCNS(=O)(=O)c1cccc2cccnc12`, the mutagenic call [3] is reported as “inactive; negative”, the mutagenic call [1] is reported as “inactive; negative” and the mutagenic call [4] is reported as “inactive; negative”. The mutagenic call [5] was “inactive; negative”, the mutagenic call (Test System: AMES SALMONELLA TYPHIMURIUM, Strain/Indicator: TA1535, Metabolic Activation: NONE, Method: STANDARD PLATE) was “inactive; negative” and the mutagenic call [2] was “inactive; negative”. For the same compound, the mutagenic call [8] was “inactive; negative” and the mutagenic call (Test System: AMES SALMONELLA TYPHIMURIUM, Strain/Indicator: TA1537, Metabolic Activation: RAT, LIVER, S-9, AROCLOR 1254, Method: STANDARD PLATE) was “inactive; negative”.
With `CS(=O)(=O)Nc1ccc(Nc2c3ccccc3nc3ccccc23)cc1` the mutagenic call [8] was “active; positive”.
